In US9687431B2, “Use of isoleucine N-hexadecanoyl as a “volumizing” and/or “plumping” agent for human skin” (SOCIETE D'EXPLOITATION DE PRODUITS POUR LES INDUSTRIES …, priority 2009, dated 2017):
Marks after values point to notes of the source that are not given here.

How the values were obtained:
Format in all cases: cell-based
[1] = system: normal human preadipocytes; assay: Differentiation of normal human preadipocytes in depleted differentiation medium (Bodipy lipid droplet labeling, image analysis); settings: 15 days
Experimental: Normal human preadipocytes resulting from abdominal surgical waste from a donor were cultured in monolayer until confluence in the presence of a culture medium comprising PBM-2 (Preadipocyte Basal Medium-2) supplied by the company Lonza, an amount of 10% by volume of FBS (Fetal Bovine Serum) for 100% of the volume of the culture medium, L-glutamine and gentamicin.
Their differentiation into adipocytes was induced by adding a “depleted” differentiation medium comprising a mixture of insulin, dexamethasone, IBMX (isobutyl methyl xanthine) and indomethacin, and used at a dilution rate of 1/10th with respect to a “standard” differentiation medium.
A differentiation phase is also carried out on human preadipocytes as described above and cultured in monolayers as described above, but in the presence of a “standard” differentiation medium, namely a nondiluted mixture of insulin, dexamethasone, IBMX (IsoButyl Methyl Xanthine) and indomethacin, so as to obtain a “control differentiated in standard medium”.
Once the maturity of the preadipocytes was reached, namely after 15 days following the induction described above, the cultures were rinsed with a PBS (Phosphate Buffered Saline) buffer and the intracytoplasmic lipid vesicles were labeled using a specific viable fluorescent probe, Bodipy (500 μg/ml). The nuclei of the differentiated preadipocytes were also labeled using a Hoechst reagent (bisbenzimide), which is also fluorescent, at a concentration of 2 μg/ml, sold by the company Sigma.
Three photographs per well were taken using a Zeiss Axiovert™ 25 inverted epifluorescence microscope fitted with an ×20 objective.
For each test of products tested, including controls, the images obtained with the inverted epifluorescence microscope are analyzed using the Lucia software, allowing quantification of the Bodipy fluorescent label, in order to carry out: • a measurement of the lipid droplet surface area (Sd), • a measurement of the number of differentiated cells (Nc), and • a measurement of the number of total cell nuclei (Nnc).
For each test, the level of adipocyte differentiation (D) is then calculated by relating the lipid droplet surface area to the number of total nuclei according to the following formula: (D)=(lipid droplet surface area)/(number of total cell nuclei).
The following will thus be calculated: • the level of adipocyte differentiation of the control differentiated in depleted medium (subsequently denoted Ddm); • the level of adipocyte differentiation of the control differentiated in standard or complete medium (subsequently denoted Dcm); • the level of adipocyte differentiation of the products tested (N-hexadecanoyl isoleucine, hexadecanoic acid, isoleucine, hexadecanoic acid/isoleucine mixture in a ratio by weight of 65/35) (subsequently denoted Dpt).
For each product tested, the following are then calculated:
a) the percentage restoration of adipocyte differentiation (subsequently denoted RAD) according to the following formula: RAD=[(Dpt−Ddm)/(Dcm−Ddm)]×100
b) the adipocyte surface area (AS) according to the following formula: (AS)=[(lipid droplet surface area Sd)/(number of differentiated cells Nc)]×100
c) the percentage increase in adipocyte surface area (subsequently denoted IAS) relative to the control treated with depleted medium according to the formula: IAS=[adipocyte surface area of the product (ASpt)/adipocyte surface area of the control treated with the depleted medium (ASdm)]×100.
A statistical analysis is then carried out on the data (D) and (AS) using a two-sided Student's test assuming unequal variances. Thus, the population of each of the experimental conditions tested for the parameters (D) and (AS) is compared with the population of the condition of differentiation in the presence of the depleted differentiation medium. An error threshold (p) is set at 5%.

[2] = system: human preadipocytes of passage R7; assay: Adipocyte phenotype restoration in artificially aged (passage R7) preadipocytes, protocol 1 (Oil-Red-O, OD 540 nm); settings: protocol 1: product present during differentiation; 10 μg/ml on a dry extract basis
Text: (§1) The term “passage” or “subculturing” or “amplification” denotes here the operation, known to those skilled in the art, consisting in amplifying the cells in question successively by means of culture cycles. Thus, the term “preadipocytes of passage RO” denotes the preadipocytes which have undergone no passage operation as defined above. The term “preadipocytes of passage R1” denotes the preadipocytes which have undergone a single passage operation as defined above. The term “preadipocytes of passage R7” denotes the preadipocytes which have undergone 7 successive passage operations under identical operating conditions.
(§2) • i) Human preadipocytes of passage R1 were cultured in monolayer for 5 days until confluence. […]
The optical density thus measured for the young control is denoted “ODR1”. […]

[3] = system: human preadipocytes of passage R7; assay: Adipocyte phenotype restoration in artificially aged (passage R7) preadipocytes, protocol 2; settings: protocol 2: product present during 5-day culture until confluence; 10 μg/ml on a dry extract basis
Text: as §1, §2
The steps of sections a) and b) of protocol 1 are carried out using human preadipocytes of passage R1 and human preadipocytes of passage R7 so as to obtain a “young” control and an “aged” control and the associated optical densities ODR1 and ODR7. The effect of the N-hexadecanoyl isoleucine on human preadipocytes of passage R7 is evaluated according to a variant of the procedure of protocol 1, the first step of which consists in culturing the human preadipocytes of passage R7 in a monolayer for 5 days until confluence in the presence of N-hexadecanoyl isoleucine. […]

[4] = system: human preadipocytes of passage R7; assay: Adipocyte phenotype restoration in artificially aged (passage R7) preadipocytes, protocol 3; settings: protocol 3: product present during culture and differentiation; 10 μg/ml on a dry extract basis
Text: as §1, §2
The effect of the N-hexadecanoyl isoleucine on human preadipocytes of passage R7 is evaluated according to a variant of the procedure of protocol 2, the first step of which consists in culturing the human preadipocytes of passage R7 in a monolayer for 5 days until confluence in the presence of N-hexadecanoyl isoleucine. […]

[5] = 1.7 μg/ml on a dry extract basis

Row | Compound | IAS (percentage increase in adipocyte surface area relative to control in depleted medium = 100%) ([1]; 3.3 μg/ml) | RAD (percentage restoration of adipocyte differentiation) ([1]; 3.3 μg/ml) [%] | IAS (percentage increase in adipocyte surface area relative to control in depleted medium = 100%) ([1]; 6.5 μg/ml) [%] | RAD (percentage restoration of adipocyte differentiation) ([1]; 6.5 μg/ml) [%] | PRR (phenotype restoration rate) [2] [%*] | PRR (phenotype restoration rate) [3] [%*] | PRR (phenotype restoration rate) [4] [%*] | IAS (percentage increase in adipocyte surface area relative to control in depleted medium = 100%) [1, 5] [%] | RAD (percentage restoration of adipocyte differentiation) [1, 5] [%]
1 | CCCCCCCCCCCCCCCC(=O)O [Hexadecanoic acid, hexadecanoic acid] | 41%* | <10 | 62 | <10 | – | – | – | – | –
2 | CCCCCCCCCCCCCCCC(=O)N[C@H](C(=O)O)[C@@H](C)CC [N-hexadecanoyl isoleucine] | – | – | – | – | 16 | 17 | 30 | – | –
3 | CC[C@H](C)[C@H](N)C(=O)O [Isoleucine, isoleucine] | 117% | <10 | – | – | – | – | – | 57 | <10
